Experimental data reported in patent US12357596B2, “Compounds for prevention and treatment of obesity and related disorders” (ABREXA PHARMACEUTICALS, INC., priority 2019, dated 2025).
Marks after values point to notes of the source that are not given here.

Assay: 28-Day Oral (Gavage) Toxicity Study in Beagle Dogs with a 14-Day Recovery Period at 0, 1, 10 and 30 mg/kg/day (body weight)
Type: in vivo
Experimental: J147 was administered once daily to beagle dogs via oral gavage for up to 28 days at a daily dose of 0, 1, 10 and 30 mg/kg. J174 was prepared in a vehicle formulation comprising 5% ethanol, 5% DMSO and 90% corn oil (v/v/v). Block Lab Diet (Certified Canine Diet #5007, PMI Nutrition International, Inc.) was offered via limited feedings, except during designated periods. The animals were offered food 2 hours postdose on each dosing day for 2 to 5 hours. Food was offered 2 to 5 hours/day during the acclimation period and during the recovery period. Tap water was available ad libitum via an automatic watering system. The study protocol is shown below in Table 10.

## COc1cccc(/C=N/N(C(=O)C(F)(F)F)c2ccc(C)cc2C)c1 [J147]
dogs, 28-day oral gavage
  Conclusion on body weight: induces weight loss and inhibits weight gain
dogs, Groups 3 and 4, 10 mg/kg/day and 30 mg/kg/day
  Body weight and food consumption finding: Body weight loss with lower food consumption
dogs, males and females, 10 mg/kg/day
  Weight lost compared to pre-test levels (up to): up to −9%
Female dogs, 1 mg/kg/day, Day 3
  Body Weight, Mean: 6.463 kg
Female dogs, 1 mg/kg/day, Day 7
  Body Weight, Mean: 6.513 kg
Female dogs, 1 mg/kg/day, Day 10
  Body Weight, Mean: 6.675 kg
Female dogs, 1 mg/kg/day, Day 14
  Body Weight, Mean: 6.688 kg
Female dogs, 1 mg/kg/day, Day 17
  Body Weight, Mean: 6.763 kg
Female dogs, 1 mg/kg/day, Day 21
  Body Weight, Mean: 6.788 kg
Female dogs, 1 mg/kg/day, Day 24
  Body Weight, Mean: 6.813 kg
Female dogs, 1 mg/kg/day, Day 28
  Body Weight, Mean: 6.813 kg
Female dogs, 1 mg/kg/day, Day −1 (pre-dose)
  Body Weight, Mean: 6.413 kg
Female dogs, 10 mg/kg/day
  Animals that lost weight: 4 of 4
Female dogs, 10 mg/kg/day, Day 3
  Body Weight, Mean: 6.363 kg
Female dogs, 10 mg/kg/day, Day 7
  Body Weight, Mean: 6.250 kg
Female dogs, 10 mg/kg/day, Day 10
  Body Weight, Mean: 6.275 kg
Female dogs, 10 mg/kg/day, Day 14
  Body Weight, Mean: 6.150 kg
Female dogs, 10 mg/kg/day, Day 17
  Body Weight, Mean: 6.163 kg
Female dogs, 10 mg/kg/day, Day 21
  Body Weight, Mean: 6.063 kg
Female dogs, 10 mg/kg/day, Day 24
  Body Weight, Mean: 6.038 kg
Female dogs, 10 mg/kg/day, Day 28
  Body Weight, Mean: 5.988 kg
Female dogs, 10 mg/kg/day, Day −1 (pre-dose)
  Body Weight, Mean: 6.325 kg
Female dogs, 30 mg/kg/day
  Animals that lost weight: 6 of 6
  Weight lost, of pretest levels (up to): ≤ −17%
Female dogs, 30 mg/kg/day, Day 3
  Body Weight, Mean: 6.308 kg
Female dogs, 30 mg/kg/day, Day 7
  Body Weight, Mean: 6.242 kg
Female dogs, 30 mg/kg/day, Day 10
  Body Weight, Mean: 6.192 kg
Female dogs, 30 mg/kg/day, Day 14
  Body Weight, Mean: 6.033 kg
Female dogs, 30 mg/kg/day, Day 17
  Body Weight, Mean: 5.858^a kg
Female dogs, 30 mg/kg/day, Day 21
  Body Weight, Mean: 5.700^b kg
Female dogs, 30 mg/kg/day, Day 24
  Body Weight, Mean: 5.575^b kg
Female dogs, 30 mg/kg/day, Day 28
  Body Weight, Mean: 5.525^b kg
Female dogs, 30 mg/kg/day, Day −1 (pre-dose)
  Body Weight, Mean: 6.258 kg
Male dogs, 1 mg/kg/day, Day 3
  Body Weight, Mean: 7.850 kg
Male dogs, 1 mg/kg/day, Day 7
  Body Weight, Mean: 7.838 kg
Male dogs, 1 mg/kg/day, Day 10
  Body Weight, Mean: 8.000 kg
Male dogs, 1 mg/kg/day, Day 14
  Body Weight, Mean: 8.000 kg
Male dogs, 1 mg/kg/day, Day 17
  Body Weight, Mean: 8.075 kg
Male dogs, 1 mg/kg/day, Day 21
  Body Weight, Mean: 8.200 kg
Male dogs, 1 mg/kg/day, Day 24
  Body Weight, Mean: 8.325 kg
Male dogs, 1 mg/kg/day, Day 28
  Body Weight, Mean: 8.250 kg
Male dogs, 1 mg/kg/day, Day −1 (pre-dose)
  Body Weight, Mean: 7.813 kg
Male dogs, 10 mg/kg/day
  Animals that lost weight: 3 of 4
Male dogs, 10 mg/kg/day, Day 3
  Body Weight, Mean: 7.588 kg
Male dogs, 10 mg/kg/day, Day 7
  Body Weight, Mean: 7.675 kg
Male dogs, 10 mg/kg/day, Day 10
  Body Weight, Mean: 7.763 kg
Male dogs, 10 mg/kg/day, Day 14
  Body Weight, Mean: 7.625 kg
Male dogs, 10 mg/kg/day, Day 17
  Body Weight, Mean: 7.563 kg
Male dogs, 10 mg/kg/day, Day 21
  Body Weight, Mean: 7.663 kg
Male dogs, 10 mg/kg/day, Day 24
  Body Weight, Mean: 7.638 kg
Male dogs, 10 mg/kg/day, Day 28
  Body Weight, Mean: 7.500 kg
Male dogs, 10 mg/kg/day, Day −1 (pre-dose)
  Body Weight, Mean: 7.563 kg
Male dogs, 30 mg/kg/day
  Animals that lost weight: 5 of 6
  Weight lost, of pretest levels (up to): up to −12%
Male dogs, 30 mg/kg/day, Day 3
  Body Weight, Mean: 7.900 kg
Male dogs, 30 mg/kg/day, Day 7
  Body Weight, Mean: 7.933 kg
Male dogs, 30 mg/kg/day, Day 10
  Body Weight, Mean: 8.008 kg
Male dogs, 30 mg/kg/day, Day 14
  Body Weight, Mean: 7.967 kg
Male dogs, 30 mg/kg/day, Day 17
  Body Weight, Mean: 7.883 kg
Male dogs, 30 mg/kg/day, Day 21
  Body Weight, Mean: 7.800 kg
Male dogs, 30 mg/kg/day, Day 24
  Body Weight, Mean: 7.825 kg
Male dogs, 30 mg/kg/day, Day 28
  Body Weight, Mean: 7.600 kg
Male dogs, 30 mg/kg/day, Day −1 (pre-dose)
  Body Weight, Mean: 7.908 kg
